# Experimental data reported in patent US20210395210A1, “INHIBITION OF BACTERIAL CHAPERONIN SYSTEMS” (THE TRUSTEES OF INDIANA UNIVERSITY, priority 2018, published 2021).
# Where two headings read alike, the source gives them in different places.
# Experiments:
# [1] = tested on: Drug sensitive Staphylococcus aureus (ATCC 25923); assay: Bacterial proliferation assay, drug sensitive S. aureus; format: cell-based
# From the text: (§1) Bacterial Strains: Enterococcus faecium—(Orla-Jensen) Schleifer and Kilpper-Balz strain NCTC 7171 (ATCC 19434); Drug sensitive Staphylococcus aureus—Rosenbranch strain Seattle 1945 (ATCC 25923); Methicillin resistant S. aureus (MRSA)—Rosenbach strain HPV107 (ATCC BAA-44); Klebsiella Pneumonia—(Schroeter) Trevisan strain NCTC 9633 (ATCC 13883); Acinetobacter baumannii—Bouvet and Grimont strain 2208 (ATCC 19606); Pseudomonas aeruginosa—(Schroeter) Migula strain NCTC 10332 (ATCC 10145); Enterobacter cloacae—E. cloacae, subsp. cloacae (Jordan) Hormaeche and Edwards strain CDC 442-68 (ATCC 13047).
# (§2) Growth Media: All bacteria were grown in Brain Heart Infusion (BHI) broth/agar (Becton, Dickinson and Company). All liquid cultures were grown in BHI media supplemented with 25 mg/L Ca^2+ and 12.5 mg/L Mg^2+ to mimic free physiological concentrations of these cations. A 10 mg/mL Ca^2+ stock solution was prepared by dissolving 3.68 g of CaCl2.2H2O in 100 mL of deionized water, and a 10 mg/mL Mg^2+ stock solution was prepared by dissolving 8.36 g of MgCl2.6H2O in 100 mL deionized water. Both stock solutions were filter-sterilized using 0.2 μm pore size cellulose-acetate filters. 2.5 mL of the sterile 10 mg/mL Ca^2+ stock and 1.25 mL of the sterile 10 mg/mL Mg^2+ stock solutions were added per 1 L of autoclaved BHI medium to obtain 25 mg/L Ca^2+ and 12.5 mg/L Mg^2+ ions, respectively.
# (§3) General Assay Protocol: Stock bacterial cultures were streaked onto BHI agar plates and grown overnight at 37° C. Fresh aliquots of broth were inoculated with single bacterial colonies and the cultures were grown overnight at 37° C. with shaking (240 rpm) in cation adjusted BHI media. The following morning, the overnight cultures were sub-cultured (1:5 dilution) into fresh aliquots of cation adjusted BHI media and grown at 37° C. for 1-2 hours with shaking. After 2 h, cultures were diluted into fresh media to achieve final OD600 readings of 0.017. Aliquots of these diluted cultures (30 μL) were added to clear, flat-bottom, 384-well polystyrene plates that were stamped with 0.5 μL of test compounds in 20 μL media. […] Plates were sealed with “Breathe Easy” oxygen permeable membranes (Diversified Biotech) and left to incubate at 37° C. without shaking (stagnant assay). OD600 nm readings were taken at either 6-8 h (S. aureus, MRSA, K. pneumonia, E. cloacae, and P. aeruginosa) or 24 h (E. faecium and A. baumannii). A second set of baseline control plates were prepared analogously, but without any bacteria added, to correct for possible compound absorbance and/or precipitation. Plates were then read at 600 nm using a Molecular Devices SpectraMax Plus384 microplate reader. […] Results presented represent the averages of EC50 values obtained from at quadriplicate (duplicate of duplicate) replicates.
# [2] = tested on: Pseudomonas aeruginosa (ATCC 10145); assay: Bacterial proliferation assay, P. aeruginosa; format: cell-based
# From the text: as §1, §2, §3
# [3] = target: T1, human HSP60/10 (Homo sapiens, UniProt P10809); assay: HSP60/10-mediated dMDH refolding assay; format: biochemical
# T1 construct: octa-Histidine tag (TEV-cleavable) (N, cleaved yes); made in house; host or cells: HSP60 in E. coli Rosetta 2 (DE3); HSP10 in Rosetta 2 (DE3) pLysS
# Experimental: Reagent preparation: For these assays, four primary reagent stocks were prepared: 1) GroEUES-dMDH or HSP60/10-dMDH binary complex stock; 2) ATP initiation stock; 3) EDTA quench stock; 4) MDH enzymatic assay stock. Denatured MDH (dMDH) was prepared by 2-fold dilution of MDH (5 mg/ml, soluble pig heart MDH from Roche, product #10127248001) with denaturant buffer (7 M guanidine-HCl, 200 mM Tris, pH 7.4, and 50 mM DTT). MDH was completely denatured by incubating at room temperature for 45 min. The binary complex solutions were prepared by slowly adding the dMDH stock to a stirring stock with GroEL (or HSP60) in folding buffer (50 mM Tris-HCl, pH 7.4, 50 mM KCl, 10 mM MgCl2, and 1 mM DTT), followed by addition of GroES (or HSP10). The binary complex stocks were prepared immediately prior to dispensing into the assay plates and had final protein concentrations of 83.3 nM GroEL (Mr 800 kDa) or HSP60 (Mr 400 kDa), 100 nM GroES or HSP10 (Mr 70 kDa), and 20 nM dMDH in folding buffer. For the ATP initiation stock, ATP solid was diluted into folding buffer to a final concentration of 2.5 mM. Quench solution contained 600 mM EDTA (pH 8.0). The MDH enzymatic assay stock consisted of 20 mM sodium mesoxalate and 2.4 mM NADH in reaction buffer (50 mM Tris-HCl, pH 7.4, 50 mM KCl, and 1 mM DTT).
# Assay Protocol: First, 30 μL aliquots of the GroEL/ES-dMDH or HSP60/10-dMDH binary complex stocks were dispensed into clear, 384-well polystyrene plates. […] The chaperonin-mediated refolding cycles were initiated by addition of 20 μL of ATP stock (reagent concentrations during refolding cycle: 50 nM GroEL or HSP60, 60 nM GroES or HSP10, 12 nM dMDH, 1 mM ATP, and compounds of 100 μM to 46 nM, 3-fold dilution series). The refolding reactions were incubated at 37° C. […] Next, the assay was quenched by addition of 10 μL of the EDTA to final concentration of 100 mM. […] A340 nm measurements were recorded at 0.5 minutes (start point) and at successive time points until the amount of NADH consumed reached ˜90% (end point, generally between 20-35 minutes). The differences between the start and end point A340 values were used to calculate the % inhibition of the GroEL/ES or HSP60/10 machinery by the compounds. […] Results presented represent the averages of IC50 values obtained from at least quadriplicate (duplicate of duplicate) replicates.
# [4] = tested on: Enterococcus faecium (ATCC 19434); assay: Bacterial proliferation assay, E. faecium; format: cell-based
# From the text: as §1, §2, §3
# [5] = tested on: Klebsiella Pneumonia (ATCC 13883); assay: Bacterial proliferation assay, K. pneumoniae; format: cell-based
# From the text: as §1, §2, §3
# [6] = ATCC25923, OD600 at 6-8 h, read-out: Bacterial Proliferation EC50 S. aureus Sensitive
# [7] = ATCC25923, log of EC50 (μM scale), with standard deviation, read-out: log(EC50) Bacterial Proliferation Assay S. aureus Sensitive (converted)
# [8] = ATCC10145, OD600 at 6-8 h, read-out: Bacterial Proliferation EC50 P. aeruginosa
# [9] = ATCC10145, log of EC50 (μM scale), with standard deviation, read-out: log(EC50) Bacterial Proliferation Assay P. aeruginosa (converted)
# [10] = human HSP60/10-dMDH refolding assay, read-out: HSP60/10-dMDH Refolding IC50
# [11] = log(IC50) ± standard deviation, human HSP60/10-dMDH refolding assay, read-out: HSP60/10-dMDH Refolding Assay log(IC50) (converted)
# [12] = ATCC19434, OD600 at 24 h, read-out: Bacterial Proliferation EC50 E. faecium
# [13] = ATCC19434, log of EC50 (μM scale), with standard deviation, read-out: log(EC50) Bacterial Proliferation Assay C. faecium (converted)
# [14] = ATCC13883, OD600 at 6-8 h, read-out: Bacterial Proliferation EC50 K. pneumoniae
# [15] = ATCC13883, log of EC50 (μM scale), with standard deviation, read-out: log(EC50) Bacterial Proliferation Assay K. pneumoniae (converted)
# [16] = ATCC25923, read-out: Bacterial Proliferation EC50 S. aureus Sensitive
# [17] = ATCC25923, read-out: log(EC50) Bacterial Proliferation Assay S. aureus Sensitive (converted)
# [18] = ATCC10145, read-out: Bacterial Proliferation EC50 P. aeruginosa
# [19] = ATCC10145, read-out: log(EC50) Bacterial Proliferation Assay P. aeruginosa (converted)
# [20] = ATCC19434, 24 h, read-out: Bacterial Proliferation EC50 E. faecium
# [21] = ATCC19434, read-out: log(EC50) Bacterial Proliferation Assay C. faecium (converted)
# [22] = ATCC13883, read-out: Bacterial Proliferation EC50 K. pneumoniae
# [23] = ATCC13883, read-out: log(EC50) Bacterial Proliferation Assay K. pneumoniae (converted)
# T1 sequence (P10809 27-573): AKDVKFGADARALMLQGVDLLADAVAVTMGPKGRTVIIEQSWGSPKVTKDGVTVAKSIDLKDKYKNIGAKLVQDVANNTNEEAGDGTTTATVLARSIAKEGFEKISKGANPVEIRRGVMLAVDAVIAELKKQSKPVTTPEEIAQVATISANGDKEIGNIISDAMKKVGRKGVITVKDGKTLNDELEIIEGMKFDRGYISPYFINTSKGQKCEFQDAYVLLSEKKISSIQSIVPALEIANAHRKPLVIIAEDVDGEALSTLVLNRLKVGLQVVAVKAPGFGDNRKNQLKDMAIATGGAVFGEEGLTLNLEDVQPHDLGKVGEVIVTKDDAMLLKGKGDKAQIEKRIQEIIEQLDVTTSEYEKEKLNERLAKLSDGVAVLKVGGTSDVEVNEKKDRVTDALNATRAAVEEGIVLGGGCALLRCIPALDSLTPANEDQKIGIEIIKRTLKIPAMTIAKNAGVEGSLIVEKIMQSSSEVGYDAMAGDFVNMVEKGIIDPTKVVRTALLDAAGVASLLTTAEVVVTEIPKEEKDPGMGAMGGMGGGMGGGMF
SMILES,"EC50 [1, 6]","EC50 [1, 7]","EC50 [2, 8]","EC50 [2, 9]","IC50 [3, 10]","IC50 [3, 11]","EC50 [4, 12]","EC50 [4, 13]","EC50 [5, 14]","EC50 [5, 15]","EC50 [1, 16]","EC50 [1, 17]","EC50 [2, 18]","EC50 [2, 19]","EC50 [4, 20]","EC50 [4, 21]","EC50 [5, 22]","EC50 [5, 23]",other results
"O=C(Nc1ccccc1)c1cccc(Br)c1 [Compound 27, 3-Bromo-N-phenylbenzamide]",> 100 µM,> 100 µM,> 100 µM,> 100 µM,> 100 µM,> 100 µM,> 100 µM,> 100 µM,> 100 µM,> 100 µM,,,,,,,,,
"O=C(Nc1ccc(Oc2ccc(Cl)cc2)c(Cl)c1)c1cc(I)cc(I)c1O [Rafoxanide, rafoxanide, reference compound]",,,,,,,,,,,0.32 µM,0.324 µM,> 100 µM,> 100 µM,0.99 µM,1 µM,> 100 µM,> 100 µM,
"O=C(Nc1ccc(Sc2nc3ccccc3s2)c(Cl)c1)c1ccccc1 [Compound 19, N-(4-(Benzo[d]thiazol-2-ylthio)-3-chlorophenyl)benzamide]",43 µM,42.7 µM,> 100 µM,> 100 µM,> 100 µM,> 100 µM,> 100 µM,> 100 µM,> 100 µM,> 100 µM,,,,,,,,,
"O=C(Nc1cccc(Cl)c1)c1cc(Br)cc(Br)c1 [Compound 23, 3,5-Dibromo-N-(3-chlorophenyl)benzamide]",14 µM,13.8 µM,> 100 µM,> 100 µM,> 100 µM,> 100 µM,> 100 µM,> 100 µM,> 100 µM,> 100 µM,,,,,,,,,
"COc1ccc(Br)cc1C(=O)Nc1cccc(Cl)c1 [Compound 39, 5-Bromo-N-(3-chlorophenyl)-2-methoxybenzamide]",> 100 µM,> 100 µM,> 100 µM,> 100 µM,> 100 µM,> 100 µM,> 100 µM,> 100 µM,> 100 µM,> 100 µM,,,,,,,,,
"O=C(Nc1ccccc1)c1cccc(Br)c1O [Compound 14, 3-Bromo-2-hydroxy-N-phenylbenzamide]",6.4 µM,6.46 µM,> 100 µM,> 100 µM,> 100 µM,> 100 µM,> 100 µM,> 100 µM,> 100 µM,> 100 µM,,,,,,,,,
"COc1c(Br)cc(Br)cc1C(=O)Nc1ccc(Sc2nc3ccccc3s2)c(Cl)c1 [Compound 29, N-(4-(Benzo[d]thiazol-2-ylthio)-3-chlorophenyl)-3,5-dibromo-2-methoxybenzamide]",> 100 µM,> 100 µM,> 100 µM,> 100 µM,> 100 µM,> 100 µM,> 100 µM,> 100 µM,> 100 µM,> 100 µM,,,,,,,,,
"CN[C@H](CC(C)C)C(=O)N[C@H]1C(=O)N[C@@H](CC(N)=O)C(=O)N[C@H]2C(=O)N[C@H]3C(=O)N[C@H](C(=O)N[C@H](C(=O)O)c4cc(O)cc(O)c4-c4cc3ccc4O)[C@H](O)c3ccc(c(Cl)c3)Oc3cc2cc(c3O[C@@H]2O[C@H](CO)[C@@H](O)[C@H](O)[C@H]2O[C@H]2C[C@](C)(N)[C@H](O)[C@H](C)O2)Oc2ccc(cc2Cl)[C@H]1O [Vancomycin, vancomycin, reference compound]",,,,,,,,,,,0.67 µM,0.661 µM,> 100 µM,> 100 µM,0.6 µM,0.589 µM,> 100 µM,> 100 µM,"EC50 ([1]; ATCC25923, read-out: S. aureus Proliferation & Biofilm Assay EC50 Planktonic Growth): 0.67 µM; IC50 [3]: > 100 µM; HSP60/10-dMDH Refolding Assay log(IC50) ([3]; log(IC50) ± standard deviation, human HSP60/10-dMDH refolding assay): >2"
"COc1c(Br)cccc1C(=O)Nc1ccccc1 [Compound 42, 3-Bromo-2-methoxy-N-phenylbenzamide]",> 100 µM,> 100 µM,> 100 µM,> 100 µM,> 100 µM,> 100 µM,> 100 µM,> 100 µM,> 100 µM,> 100 µM,,,,,,,,,
"Cc1cc(C(C#N)c2ccc(Cl)cc2)c(Cl)cc1NC(=O)c1cc(I)cc(I)c1O (stereo not shown) [Closantel, closantel, reference compound]",,,,,,,,,,,0.47 µM,0.468 µM,> 100 µM,> 100 µM,1.2 µM,1.23 µM,> 100 µM,> 100 µM,
